In patent US20250066370A1, “BICYCLIC TRIAZINE DERIVATIVES FOR THE TREATMENT OF CANCER” (DEUTSCHES KREBSFORSCHUNGSZENTRUM, priority 2022, published 2025):
pIC50: −log10 of the molar value.

Experiments:
[1] = test system: BRCA1 mRNA expression in MDA-MB-231 cells; test: qRT-PCR assay: inhibition of BRCA1 mRNA expression in MDA-MB-231 cells; assay type: cell-based; conditions: Homo sapiens, 24 h exposure, BRCA1 normalised to GAPDH, median, read-out: RTqPCR-MDA-MB-231, IC50 [mol/l], BRCA1 (median)
Protocol: 3. qRT-PCR Assay: BRCA1, ATR, MCL1 in MDA-MB-231, CAL-120
Tissue cultured human MDA-MB-231 human breast cancer cells were plated in 500 microL per well at 200,000 cells/well in a 24 well microtiter plate. After 24 h, the cells were exposed continuously for 24 h to test substances (substances were added with Tecan HP D300 Dispenser). RNA was prepared using Qiagen RNeasy MiniKit (#74106), RNA was quantified using a NanoDrop Equipment, and 600 nano grams of RNA was converted to cDNA using a SuperScript VILO kit (Thermofisher #11755050) followed by qPCR amplification. BRCA1 and ATR gene expression was measured by RT-qPCR and normalised to GAPDH housekeeping gene expression. qPCR primer sets have been purchased from Thermo Fisher Scientific/Applied Biosystems: BRCA1, #Hs 01556193; ATR. #Hs 00992123: GAPDH. #Hs 03929097.

[2] = test system: MDA-MB-231, human breast cancer cells; test: Proliferation assay MDA-MB-231 (crystal violet); assay type: cell-based; conditions: 96 h, MDA-MB-231 parental cells, 4 days, median, read-out: Prolif-MDA MB-231, IC50 - [mol/l] (median)
Protocol: (§1) Human tumour cells were originally obtained from the American Type Culture Collection (ATCC), or from the Deutsche Sammlung von Mikroorganismen und Zellkulturen (DSMZ, German Collection of Microorganisms and Cell Cultures). Cultivated tumour cells (CAL-120, human breast adenocarcinoma cells, DSMZ ACC-459; MDA-MB-231, human breast cancer cells, ATCC HTB-26) were plated at a density of 4,000 cells/well in a 96-well multitier plate in 200 microL of their respective growth medium supplemented 10% fetal calf serum. After 24 hours, the cells of one plate (zero-point plate) were stained with crystal violet (see below), while the medium of the other plates was supplemented with the test substances in various concentrations (0 micromol/L, as well as in the range of 0.01-10 micromol/L; the final concentration of the solvent dimethyl sulfoxide was adjusted to 0.1%) using a Tecan HP D300 Digital Dispenser. The cells were incubated for 4 days in the presence of test substances. Cell proliferation was determined by staining the cells with crystal violet: the cells were fixed by adding 20 microL/measuring point of an 11% glutaric aldehyde solution for 15 minutes at room temperature. After three washing cycles of the fixed cells with water, the plates were dried at room temperature. The cells were stained by adding 100 microL/measuring point of a 0.1% crystal violet solution (pH 3.0). After three washing cycles of the stained cells with water, the plates were dried at room temperature. The dye was dissolved by adding 100 microL/measuring point of a 10% acetic acid solution. The extinction was determined by photometry at a wavelength of 595 nm. The change of cell number, in percent, was calculated by normalization of the measured values to the extinction values of the zero-point plate (=0%) and the extinction of the untreated (0 μM) cells (=100%). The IC50 values (inhibitory concentration at 50% of maximal effect) were determined by means of a 4 parameter fit.

[3] = test system: CAL-120, human breast adenocarcinoma cells; test: Proliferation assay CAL-120 (crystal violet); assay type: cell-based; conditions: 96 h, CAL-120 parental cells, 4 days, median, read-out: Prolif-CAL-120, IC50 - [mol/l] (median)
Protocol: as §1

CDK12 = CDK12 (Homo sapiens (Human), UniProt Q9NYV4); test: CDK12 nuclear protein level: immunofluorescence/high content analysis in CAL-120 cells; assay type: cell-based; conditions: 24 h, nuclear CDK12 staining intensity, median, read-out: CDK12 degradation IF, DC50 - [mol/l] (median)
Protocol: In the context of the present invention, the term “DC50 CDK12” refers to the DC50 values obtained according to the assay described in this section (7) herein below, i.e. the DC50 values for the degradation of CDK12.
(§2) CAL-120 human breast cancer cells (DSMZ ACC 459) are seeded in 1536-well microtiter plates (800 cells per well) containing 50 nanoL of compounds in Dose-Response. Control wells received DMSO or Example 4. Plates are then incubated for 24 h at 37° C. in an humidified incubator and fixed with 4% PFA for 10 min. Then immunofluorescence (IF) against CDK12 (CellSignalling CDK12 Antibody #11973, rabbit, 1:100 dilution) is performed using standard IF protocols. Cells are then stained with Hoechst 33342 (Life Technologies, H-1399, 0.1 microg/ml) and imaged on an automated confocal microscopy system (e.g. Perkin Elmer Opera Phenix). Nuclear and cytoplasmic intensity as well as the nuclear/cytoplasmic intensity ratio is determined by automated image analysis using custom generated scripts (MetaXpress). Data is then transferred to Genedata Screener software, normalized to DMSO and control and DC50 values (degrading concentration to achieve 50% reduction of nuclear CDK12 staining intensity relative to controls) are reported.

MDA-MB-231-CDK12d-res = test: Proliferation assay CDK12 degrader resistant MDA-MB-231; assay type: cell-based, human
Text: (§3) CDK12-degrader resistant cells were generated by propagation of CAL-120 human breast adenocarcinoma cells (DSMZ ACC-459) and MDA-MB-231 human breast cancer cells (ATCC HTB-26) in presence of increasing concentrations of the CDK12 degrader compound example 4 from WO 2021/116178. Initial concentrations of example 4 were 2.0E-08 M for CAL-120 cells and 4.6E-08 M for MDA-MB-231 cells, corresponding to ca. 2-fold the IC50 of inhibition of the cells in an proliferation assay. After the treated cells recovered and proliferated again the concentration of compound example 4 was increased to 3-fold IC50.
as §1, with “To determine the inhibitory effect of test compounds on proliferation of CAL-120-CDK12d-res, MDA-MB-231-CDK12d-res the” for “Human tumour”, “cells” for “cells were originally obtained from the American Type Culture Collection (ATCC), or from the Deutsche Sammlung von Mikroorganismen und Zellkulturen (DSMZ, German Collection of Microorganisms and Cell Cultures). Cultivated tumour cells (CAL-120, human breast adenocarcinoma cells, DSMZ ACC-459; MDA-MB-231, human breast cancer cells, ATCC HTB-26)”

CAL-120-CDK12d-res = test: Proliferation assay CDK12 degrader resistant CAL-120; assay type: cell-based, human
Text: as §3
as §1, with “To determine the inhibitory effect of test compounds on proliferation of CAL-120-CDK12d-res, MDA-MB-231-CDK12d-res the” for “Human tumour”, “cells” for “cells were originally obtained from the American Type Culture Collection (ATCC), or from the Deutsche Sammlung von Mikroorganismen und Zellkulturen (DSMZ, German Collection of Microorganisms and Cell Cultures). Cultivated tumour cells (CAL-120, human breast adenocarcinoma cells, DSMZ ACC-459; MDA-MB-231, human breast cancer cells, ATCC HTB-26)”

CYCLIN K = CYCLIN K nuclear protein level: immunofluorescence/high content analysis in CAL-120 cells; assay type: cell-based, human; conditions: 24 h, nuclear CCNK staining intensity, median, read-out: CYCLIN K degradation IF, DC50 - [mol/l] (median)
Protocol: as §2, with “CYCLIN K (ThermoFisher Scientific CCNK” for “CDK12 (CellSignalling CDK12”, “#PA5-85020,” for “#11973,”, “1:200” for “1:100”, “CCNK” for “CDK12”

Sequence of CDK12 (Q9NYV4 whole entry): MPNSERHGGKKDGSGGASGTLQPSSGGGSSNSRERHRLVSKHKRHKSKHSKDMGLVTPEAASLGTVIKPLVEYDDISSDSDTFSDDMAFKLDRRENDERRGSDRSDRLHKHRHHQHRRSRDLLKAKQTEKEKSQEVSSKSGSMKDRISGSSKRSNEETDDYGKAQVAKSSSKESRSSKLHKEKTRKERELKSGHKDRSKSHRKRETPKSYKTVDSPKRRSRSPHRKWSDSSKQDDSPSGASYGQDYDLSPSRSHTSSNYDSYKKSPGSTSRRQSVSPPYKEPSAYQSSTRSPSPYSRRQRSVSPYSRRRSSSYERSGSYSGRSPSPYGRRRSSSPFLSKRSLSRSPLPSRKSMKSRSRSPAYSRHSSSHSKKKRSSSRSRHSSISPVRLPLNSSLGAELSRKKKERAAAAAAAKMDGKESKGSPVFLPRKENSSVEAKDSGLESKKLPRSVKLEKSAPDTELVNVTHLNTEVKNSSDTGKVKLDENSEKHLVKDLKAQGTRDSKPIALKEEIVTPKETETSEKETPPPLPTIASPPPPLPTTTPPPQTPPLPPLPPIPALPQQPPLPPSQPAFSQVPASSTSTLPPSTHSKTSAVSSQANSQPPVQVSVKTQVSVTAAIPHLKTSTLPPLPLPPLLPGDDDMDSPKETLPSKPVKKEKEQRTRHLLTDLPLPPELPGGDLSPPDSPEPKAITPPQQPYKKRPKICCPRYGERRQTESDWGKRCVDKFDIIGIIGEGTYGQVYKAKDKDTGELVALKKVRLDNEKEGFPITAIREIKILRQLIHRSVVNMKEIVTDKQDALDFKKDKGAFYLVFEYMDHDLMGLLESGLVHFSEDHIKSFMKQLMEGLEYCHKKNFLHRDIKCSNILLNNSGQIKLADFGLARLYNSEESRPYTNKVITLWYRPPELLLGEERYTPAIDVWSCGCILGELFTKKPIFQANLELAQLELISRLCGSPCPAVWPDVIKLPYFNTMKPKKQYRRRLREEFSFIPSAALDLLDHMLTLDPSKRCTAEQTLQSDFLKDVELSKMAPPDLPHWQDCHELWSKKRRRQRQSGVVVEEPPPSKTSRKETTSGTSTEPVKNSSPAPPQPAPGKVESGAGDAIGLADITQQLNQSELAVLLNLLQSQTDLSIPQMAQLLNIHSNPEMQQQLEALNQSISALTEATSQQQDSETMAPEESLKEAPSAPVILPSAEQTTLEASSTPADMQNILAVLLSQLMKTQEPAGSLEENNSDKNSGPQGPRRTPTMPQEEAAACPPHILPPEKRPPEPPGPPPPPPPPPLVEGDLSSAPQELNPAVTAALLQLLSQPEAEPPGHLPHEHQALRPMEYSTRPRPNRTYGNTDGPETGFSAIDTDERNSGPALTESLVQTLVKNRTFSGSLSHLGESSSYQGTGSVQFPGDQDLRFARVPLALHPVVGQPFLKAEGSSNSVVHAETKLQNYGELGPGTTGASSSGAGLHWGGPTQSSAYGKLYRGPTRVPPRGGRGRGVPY
Sequence of CDK12 (O75909 whole entry partner): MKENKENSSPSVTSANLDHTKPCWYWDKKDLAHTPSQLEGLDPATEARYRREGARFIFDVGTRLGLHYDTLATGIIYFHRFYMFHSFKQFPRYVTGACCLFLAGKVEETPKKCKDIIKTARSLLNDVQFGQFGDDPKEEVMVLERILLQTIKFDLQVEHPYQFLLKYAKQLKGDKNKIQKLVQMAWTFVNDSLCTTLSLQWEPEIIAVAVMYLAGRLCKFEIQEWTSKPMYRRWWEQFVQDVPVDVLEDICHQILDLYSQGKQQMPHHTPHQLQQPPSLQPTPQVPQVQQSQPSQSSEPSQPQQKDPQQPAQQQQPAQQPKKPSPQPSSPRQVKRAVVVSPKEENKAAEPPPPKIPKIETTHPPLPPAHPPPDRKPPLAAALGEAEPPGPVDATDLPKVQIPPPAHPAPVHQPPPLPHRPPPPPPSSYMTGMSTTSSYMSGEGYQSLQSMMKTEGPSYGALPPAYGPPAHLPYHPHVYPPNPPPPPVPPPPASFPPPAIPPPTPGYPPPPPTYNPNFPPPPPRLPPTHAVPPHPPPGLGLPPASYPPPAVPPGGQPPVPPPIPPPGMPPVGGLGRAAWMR

| SMILES | pIC50 [1] | pIC50 [2] | pIC50 [3] | DC50 (CDK12) | pIC50 (MDA-MB-231-CDK12d-res; Homo sapiens, 96 h, CDK12 degrader resistant MDA-MB-231 cells, 4 days, median, read-out: Prolif-MDA MB-231-CDK12d-res, IC50 - [mol/] (median)) | Ratio (Prolif-MDA MB-231-CDK12d-res IC50 / Prolif-MDA MB-231 IC50) (MDA-MB-231-CDK12d-res; resistant versus parental MDA-MB-231 cells) | pIC50 (CAL-120-CDK12d-res; Homo sapiens, 96 h, CDK12 degrader resistant CAL-120 cells, 4 days, median, read-out: Prolif-CAL-120-CDK12d-res, IC50 - [mol/l] (median)) | Ratio (Prolif-CAL-120-CDK12d-res IC50 / Prolif-CAL-120 IC50) (CAL-120-CDK12d-res; resistant versus parental CAL-120 cells) | DC50 (CYCLIN K) |
| --- | --- | --- | --- | --- | --- | --- | --- | --- | --- |
| COc1ccc(-c2cnc(CNc3nc(N4CCOCC4)nn4c(C(F)(F)F)cnc34)[nH]2)cc1 [Example 13, N-{[5-(4-methoxyphenyl)-1H-imidazol-2-yl]methyl}-2-(morpholin-4-yl)-7-(trifluoromethyl)imidazo[2,1-f][1,2,4]triazin-4-amine] | 7.24 | 7.07 | 7.53 | 120 nM |  |  |  |  |  |
| FC(F)(F)c1ccc(-c2nnc(CNc3nc(N4CCOCC4)nc4c(C(F)(F)F)cnn34)[nH]2)cn1 [Example 16, 2-(morpholin-4-yl)-8-(trifluoromethyl)-N-({5-[6-(trifluoromethyl)pyridin-3-yl]-4H-1,2,4-triazol-3-yl}methyl)pyrazolo[1,5-a][1,3,5]triazin-4-amine] |  | 6.75 | 6.68 | > 1000 nM |  |  |  |  |  |
| FC(F)(F)Oc1ccc(-c2nnc(CNc3nc(N4CCOCC4)nc4c(C(F)(F)F)cnn34)[nH]2)cn1 [Example 17, 2-(morpholin-4-yl)-N-({5-[6-(trifluoromethoxy)pyridin-3-yl]-4H-1,2,4-triazol-3-yl}methyl)-8-(trifluoromethyl)pyrazolo[1,5-a][1,3,5]triazin-4-amine] |  | 6.95 | 7.06 | > 1000 nM | 6.81 | 1.4 | 6.87 | 1.5 | > 1000 nM |
